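Five concentrations, 48 hours, 96-well plates. Abbreviation: GI50, concentration required for 50% inhibition of growth. TGI is the concentration that stops growth completely.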
Tests used:
Test in all cases: growth of human tumour cells (NCI), 48 h; in the data active means GI50 below about 0.43 µM; inactive means the rest
[1] = tested on: SR leukemia
[2] = tested on: SK-MEL-2 melanoma
[3] = tested on: SK-MEL-5 melanoma
[4] = tested on: OVCAR-8 ovarian
[5] = tested on: T-47D breast
[6] = tested on: HCT-15 colon
[7] = tested on: 786-0 renal
[8] = tested on: MALME-3M melanoma
[9] = tested on: ACHN renal
[10] = tested on: SF-268 CNS
[11] = tested on: MDA-MB-435
[12] = tested on: A549 NSCLC
[13] = tested on: SK-MEL-28 melanoma
[14] = tested on: K-562 leukemia
[15] = tested on: KM12 colon
[16] = tested on: RPMI-8226 leukemia
[17] = tested on: NCI-H226 lung
[18] = tested on: OVCAR-5 ovarian
[19] = tested on: SF-295 CNS
[20] = tested on: A498 renal
[21] = tested on: SN12C renal
[22] = tested on: OVCAR-4 ovarian
[23] = tested on: U251 CNS
[24] = tested on: HL-60(TB) leukemia
[25] = tested on: HCC-2998 colon
[26] = tested on: CCRF-CEM leukemia
[27] = tested on: MOLT-4 leukemia
[28] = tested on: BT-549 breast
[29] = tested on: UACC-62 melanoma

Cn1cc(C2=C(c3c4n(c5ccccc35)CCN(C(N)=S)C4)C(=O)NC2=O)c2ccccc21
8.05 µM: TGI [24]
10.8 µM: TGI [19]
> 19 µM: TGI [17]
> 20.9 µM: TGI [27]
> 17 µM: TGI [14]
20.8 µM: TGI [25]
> 25 µM: TGI [4] | TGI [5] | TGI [6] | TGI [7] | TGI [8] | TGI [9] | TGI [10] | TGI [12] | TGI [13] | TGI [16] | TGI [18] | TGI [21] | TGI [22] | TGI [26] | TGI [28]
> 15.1 µM: TGI [1]
9.64 µM: TGI [20]
9.69 µM: TGI [15]
inactive: GI50 [1] 1.35 µM | GI50 [2] 4.32 µM | GI50 [3] 2.67 µM | GI50 [4] 7.13 µM | GI50 [5] 10.4 µM | GI50 [6] 6.31 µM | GI50 [7] 5.23 µM | GI50 [8] > 11 µM | GI50 [9] 5.95 µM | GI50 [10] 5.58 µM | GI50 [11] 0.883 µM | GI50 [12] 5.55 µM | GI50 [13] 5.34 µM | GI50 [14] 1.59 µM | GI50 [15] 3.05 µM | GI50 [16] 12.9 µM | GI50 [17] 5.84 µM | GI50 [18] 16 µM | GI50 [19] 2.64 µM | GI50 [20] 1.59 µM | GI50 [21] 6.99 µM | GI50 [22] 6.87 µM | GI50 [23] 4.49 µM | GI50 [24] 2.33 µM | GI50 [25] 6.13 µM | GI50 [26] 4.61 µM | GI50 [27] 5.12 µM | GI50 [28] 6.83 µM | GI50 [29] 4.27 µM
> 16.7 µM: TGI [3]
11.2 µM: TGI [23]
13 µM: TGI [2]
5.98 µM: TGI [11]

From PubChem BioAssay (NCI)
